In article PMC7508162 (Frontiers in Pharmacology, 2020):

What was measured:
P2 receptors = system: P2 receptors; design: method as in Robson et al., 2006; settings: ref Robson et al., 2006; cited from earlier work
human CD39 = molecular target: T1, human CD39 (Homo sapiens, UniProt P49961); assay: Malachite green assay for CD39 (natural substrate ATP); assay type: biochemical; design: Human umbilical cord membrane preparations (250 ng) natively expressing high amounts of CD39; from tissue; host or cells: human umbilical cord membranes; settings: natural substrate ATP 50 µM, n = 3, read-out: Ki ± SEM (converted)
T1 sequence (P49961 1-510): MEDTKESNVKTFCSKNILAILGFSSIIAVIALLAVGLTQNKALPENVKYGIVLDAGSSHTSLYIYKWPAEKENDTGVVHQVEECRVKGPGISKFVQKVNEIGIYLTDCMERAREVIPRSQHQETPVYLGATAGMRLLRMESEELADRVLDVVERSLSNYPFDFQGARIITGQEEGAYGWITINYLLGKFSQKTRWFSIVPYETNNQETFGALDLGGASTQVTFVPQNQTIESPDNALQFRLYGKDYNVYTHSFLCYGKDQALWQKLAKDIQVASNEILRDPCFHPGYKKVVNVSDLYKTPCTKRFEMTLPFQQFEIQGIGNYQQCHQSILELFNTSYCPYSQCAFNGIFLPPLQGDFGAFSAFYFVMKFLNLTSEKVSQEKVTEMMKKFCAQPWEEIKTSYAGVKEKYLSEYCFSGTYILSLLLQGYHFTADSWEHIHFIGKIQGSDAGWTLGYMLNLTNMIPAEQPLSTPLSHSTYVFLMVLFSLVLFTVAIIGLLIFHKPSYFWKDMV
Experimental: They were minced and homogenized with a polytron in 95 mM NaCl, 0.1 mM phenylmethylsulfonyl fluoride (PMSF), and 45 mM Tris solution, pH 7.6. […] The pellets were resuspended in 5 mM Tris buffer solution, pH 8.0 and 10% glycerol. All purification steps were performed at 4°C. The preparations were kept at −80°C.
The reaction buffer contained 10 mM HEPES, 2 mM CaCl2, 1 mM MgCl2, pH 7.4 in a final volume of 50 μl in transparent 96-well half area plates. For CD39 (NTPDase1), we made use of human umbilical cord membranes preparations which express high levels of the enzyme. For the other human NTPDase isoenzymes, we had to resort to recombinant expression. […] The amount of enzyme preparation was adjusted to ensure 10–20% of substrate conversion. […] The released (inorganic) phosphate was quantified after 20 min of gentle shaking at 25°C by measuring the absorption of the malachite green-phosphomolybdate complex at 600 nm using a BMG PheraStar FS plate reader (BMG Labtech GmbH, Ortenberg, Germany).
% Inhibition=(B−T)/B*100%
where B is the average corrected absorption of the positive control without inhibitor and T the corrected absorption in the presence of test compound.
Full concentration-inhibition curves were determined with inhibitor concentrations ranging from 0.1 to 300 µM in the presence of 2% DMSO. Three independent experiments were performed (n = 3) and curves were calculated by the GraphPad Prism 8 software. The Ki value was calculated using the Cheng-Prusoff equation for competitive inhibitors: […]

| Ki (human CD39) [µM] | Compound | effect on P2 receptors (P2 receptors) |
| --- | --- | --- |
|  | CCN(CC)c1ncnc2c1ncn2[C@@H]1O[C@H](COP(=O)(O)OP(=O)(O)C(Br)(Br)P(=O)(O)O)[C@@H](O)[C@H]1O [ARL67156, (Dibromo((((((2R,3S,4R,5R)-5-(6-(diethylamino)-9H-purin-9-yl)-3,4-dihydroxytetrahydrofuran-2-yl)methoxy)-(hydroxy)-phosphoryl)oxy)(hydroxy)phosphoryl)methyl)-phosphonic Acid, reference compound] | no significant effect |
| 3.35 | CCCCNc1nc2c(NC)ncnc2n1[C@@H]1O[C@H](COP(=O)(O)OP(=O)(O)C(Br)(Br)P(=O)(O)O)[C@@H](O)[C@H]1O [Compound 33, (Dibromo((((((2R,3S,4R,5R)-5-(8-(butylamino)-6-(methylamino)-9H-purin-9-yl)-3,4-dihydroxy-tetrahydrofuran-2-yl)methoxy)(hydroxy)phosphoryl)oxy)-(hydroxy)phosphoryl)methyl)-phosphonic Acid] |  |
